Measurements taken from patent US20140227366A1, “CARRIER MATERIAL FOR IMPROVING THE PERSISTANCE OF BIOCIDES” (priority 2011, published 2014).

Test system: aphids (Aphis craccivora)
Assay: Efficacy/penetration depth into soils: aphid mortality on chickpeas planted in soil zones from a watered soil column
Type: in vivo
Conditions: top 6 cm soil with 0.5 mg/ai TMX, watering rate 255 l/m^2, chickpeas infected with Aphis craccivora, average of multiple experiments
Description: The penetration depth of TMX with and without the improvement system was investigated using the test setup described below.
In this connection, a cylinder (diameter approx. 5.5 cm) was filled to approx. 21 cm with liquid-saturated soil. The soil was divided into three zones of 7 cm each, which were called Zone I (uppermost soil layer), Zone II (middle soil layer), and Zone III (bottommost soil layer).
Subsequently, the cylinder was filled up with 6 cm soil that had been mixed once with 0.5 mg/ai TMX (comparison test), and once with 6 cm soil with 0.5 mg/ai TMX and 2 kg/m^2 improvement system (invention example).
The cylinder was now watered (watering rate 255 l/m^2) until the water had reached the bottom, i.e. complete watering had been achieved.
Subsequently, the soil of Zone I (uppermost zone) to Zone III (bottommost zone) was removed, and chickpeas that had been infected with aphids (Aphis craccivora) were planted in the soil. Now the mortality rate of the aphids was measured, as listed in Table I (average values on the basis of multiple experiments).

`CN1COCN(Cc2cnc(Cl)s2)/C1=N/[N+](=O)[O-]` [Comparison example, 3-[(2-chloro-1,3-thiazol-5-yl)methyl]-5-methyl-N-nitro-1,3,5-oxadioazinan-4-imine] was tested, and the “mortality rate of the aphids, Zone I” value (Zone I (uppermost soil layer, 7 cm)) was 93%, the “mortality rate of the aphids, Zone II” value (Zone II (middle soil layer, 7 cm)) was 70% and the “mortality rate of the aphids, Zone III” value (Zone III (bottommost soil layer, 7 cm)) was 5%.
